Measured values reported in patent US20230028658A1, “EXPANDED DOSAGE REGIMENS FOR INTEGRIN INHIBITORS” (Pliant Therapeutics, Inc., priority 2021, published 2023).

Tested on: normal bronchial epithelial cell
Experiment: normal bronchial epithelial cell adhesion to LAP (FIG. 3A)
Type: cell-based

## COCCN(CCCCc1ccc2c(n1)NCCC2)CC[C@H](Nc1ncnc2ccccc12)C(=O)O [Compound 5, (S)-4-((2-methoxyethyl) (4-(5,6,7,8-tetrahydro-1,8-naphthyridin-2-yl)butyl)amino)-2-(quinazolin-4-ylamino) butanoic acid]
  normal bronchial epithelial cell adhesion to LAP: substantially inhibited
